The values below come from PMC9456400 (International Journal of Molecular Sciences, 2022).

Usually IC50 stands for the point on the concentration scale where inhibition reaches its midpoint.

Where only a bound is given, the exact number is not on record here.

One series addresses recombinant human CYP3A4 (Homo sapiens, UniProt P08684). The experiment in a line: Vivid CYP450 Red screening assay (BOMR substrate, baculosomes). The protocol:
The Vivid® BOMR substrate is a blocked dye that yields a minimal fluorescence signal until metabolized by CYP3A4 into products that are highly fluorescent in aqueous solutions (Figure 5, left panel).
The stringent validation process ensures the highest quality data possible for the 10-point titration, which was performed in duplicate (n = 3). An additional two control wells for each compound concentration tested are conducted to detect autofluorescent compound interference.

Series [1] has as its system Huh-7 cells. The series can be described thus: Oil Red O and LipidTOX staining of neutral lipids. As to conditions: Huh-7, chronic exposure 7 days; silibinin 10 μmol/L as co-treatment with lorlatinib. Format: cell-based, human. As to the method:
We first employed a conventional index of fatty liver disease––the intracellular accumulation of neutral lipids (steatosis)––to confirm the ability of lorlatinib to trigger hypertriglyceridemia and hypercholesteremia.
(§1) For assessment of neutral lipid formation, cells were washed in PBS, fixed with 4% paraformaldehyde for 30 min, washed in distilled water, and then briefly incubated in 60% isopropanol. Following equilibration, cells were stained with a working solution (60%) of Oil Red O for 20 min. An Oil Red O stock solution was prepared by dissolving 0.35% w/v Oil Red O in 100 mL 100% isopropanol. HCS LipidTOX™ Green Neutral Lipid Stain (Invitrogen; Cat. #H34475) was employed as a second staining cocktail for visualization of intracellular neutral lipids. Formaldehyde fixation and preparing/using the labeling solution was carried out as per the manufacturer’s instructions.

For series [2], the system named is Huh-7 cells. The series can be described thus: UHPLC-ESI-QTOF-MS/MS lipidomics. In kind it is cell-based, human. The source says:
We then questioned whether lorlatinib used at concentrations efficacious against ALK-rearranged lung cancer cells but non-toxic to ALK-negative cells could promote substantial lipidome changes in Huh-7 cells (Figure 1B; Table 1). Accordingly, […], and the lipidome was characterized in a semi-targeted approach using a UHPLC-ESI-QTOF-MS/MS method, in which we matched mass spectra with commercial standards (SPLAH mix), databases such as METLIN-PCDL and Lipid MAPS (accessed on 1 July 2022), as well as corroboration of tentative lipid species upon obtaining their MS/MS spectrum. Representative chromatograms of lipidomic analyses in Huh-7 cells can be found in Figure S1.
Lipid extraction, preparation of external calibration curves, and quality control approaches were carried out as described. Samples (2 μL) were injected directly into a 1290 Infinity UHPLC system coupled with a dual Agilent jet stream ESI source to a 6550 QTOF-MS instrument (Agilent Technologies, Santa Clara, CA, USA). UHPLC-ESI-QTOF-MS conditions, data analysis and indirect quantification of selected lipid species using MassHunter Qualitative Analysis B.07.00 software (Agilent Technologies), and corroboration of the tentative characterization of compound match entities using the Lipid Maps database (www.lipidmaps.org, accessed on 1 July 2022) and targeted MS/MS acquisition on LC-QTOF-MS instrument, have been previously described in detail.
Differentially expressed lipid species from untargeted lipidomic data were analyzed by generating volcano plots indicating statistical significance versus magnitude of fold-change for each lipid species (cutoff of Benjamini–Hochberg corrected p-value < 0.05 and log2 fold-change > 1 or […]).

Series [3] deals with Huh-7 cells. The experiment in a line: Colorimetric enzymatic quantification of cholesteryl esters and triglycerides. In kind it is cell-based, human. The settings on record: lorlatinib-treated (1 μmol/L) Huh-7 cells, silibinin 100 μmol/L, 48 h.
For series [4], the system named is Huh-7 cells. The series can be described thus: Toxicity of the combination in long-term confluent Huh-7 cells. As to conditions: silibinin as high as 100 μmol/L, Huh-7 growing confluent for more than 1 month. In kind it is cell-based, human. The source says: Our multi-faceted approach involving computational modeling, neural network-based prediction models to classify CYP inhibition, and in vitro validation using recombinant human CYP3A4, confirms and further extends the notion that exposure to standard doses of silibinin-containing milk thistle preparations leading to relatively low peak systemic concentrations (1–10 μmol/L) are expected to be accompanied by low-risk for an inhibitory interaction of the first-pass clearance of lorlatinib at the hepatic level.

For series [5] the following is noted: standard doses of silibinin-containing milk thistle preparations ref 57; cited from earlier work.
The subject of a further series is HepG2 cells. The series can be described thus: Oil Red O staining of neutral lipids. In kind it is cell-based, human. The settings on record: HepG2, acute exposure 48 h; silibinin 100 μmol/L as co-treatment with lorlatinib. As to the method: To confirm these findings, we employed an independent in vitro model of fatty liver disease involving non-tumorigenic HepG2 cells, which are routinely employed as an inducible fatty liver cell model to screen for therapeutic drugs to eliminate lipid accumulation.
as §1

Sequence of recombinant human CYP3A4 (P08684 whole entry): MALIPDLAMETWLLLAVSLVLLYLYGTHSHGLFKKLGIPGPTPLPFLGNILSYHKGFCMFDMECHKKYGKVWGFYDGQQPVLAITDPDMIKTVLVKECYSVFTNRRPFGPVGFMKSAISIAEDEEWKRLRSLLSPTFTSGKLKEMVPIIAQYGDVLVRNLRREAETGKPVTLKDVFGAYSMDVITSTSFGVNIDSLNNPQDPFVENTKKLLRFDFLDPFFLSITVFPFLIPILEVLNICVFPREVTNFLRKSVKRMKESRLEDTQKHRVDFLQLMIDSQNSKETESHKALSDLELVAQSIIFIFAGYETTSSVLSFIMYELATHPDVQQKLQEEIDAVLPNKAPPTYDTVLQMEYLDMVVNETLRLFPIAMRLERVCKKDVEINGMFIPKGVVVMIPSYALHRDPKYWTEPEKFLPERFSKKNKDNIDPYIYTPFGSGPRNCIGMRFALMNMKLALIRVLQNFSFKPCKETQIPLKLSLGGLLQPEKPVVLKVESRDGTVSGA

In the case of `CC(C)c1nc(N(C)S(C)(=O)=O)nc(-c2ccc(F)cc2)c1/C=C/[C@@H](O)C[C@@H](O)CC(=O)O` [rosuvastatin], at recombinant human CYP3A4, the IC50 was greater than 300 µM.

Consider `COc1cc(C2Oc3cc([C@H]4Oc5cc(O)cc(O)c5C(=O)[C@@H]4O)ccc3OC2CO)ccc1O` (some centres unmarked) [silibinin], for which the “Accumulation of neutral lipids (lipid droplets)” value was “notably decreased the quantity and size of the lipid droplets” in the series with Huh-7 cells [1]; “markedly fewer and smaller neutral lipid depots” with HepG2 cells. Also, the “Change of lipid species, single agent” value in the series on Huh-7 cells [2] (Huh-7, 48 h, lorlatinib 1 μmol/L, silibinin 100 μmol/L) is listed as “significantly lowered the baseline abundance of many ChoE species”. In the series with Huh-7 cells [2] (Huh-7, silibinin 100 μmol/L with lorlatinib 1 μmol/L, 48 h), the “Effect of co-treatment on lorlatinib-induced rise of lipid species” value is “completely blunted the significant lorlatinib-induced rise in numerous ChoE and TG/DG species”. In addition, in the series on Huh-7 cells [3], the “Accumulation of cholesterol esters and triglycerides” value was “inhibit the accumulation of cholesterol esters and triglycerides”. In addition, in the series on Huh-7 cells [4], the “Toxic effects of the combination with lorlatinib” value is on record as “failed to observed significant toxic effects”. In series [5], the Peak systemic concentrations is 1 to 10 µmol/L.
